{"source": "patent US12297168B2", "about": "“Compounds useful for treating liver diseases” (ABIONYX PHARMA SA, priority 2019, dated 2025)", "origin": "cited, not measured here", "test_system": "NASH resolution without worsening of fibrosis", "conditions": "Phase 3 trial, adults with NASH and fibrosis (interim analysis, RESOLVE-IT)"}
{"smiles": "CSc1ccc(C(=O)/C=C/c2cc(C)c(OC(C)(C)C(=O)O)c(C)c2)cc1", "note": "[elafibranor]", "values": [{"measurement": "effect on the primary endpoint of NASH resolution without worsening of fibrosis", "result": "did not demonstrate a statistically significant effect"}]}
